Measurements: patent publication US7094781B2, “Sulfamides and their use as endothelin receptor antagonists” (Actelion Pharmaceuticals Ltd., priority 2000, dated 2006)

Assays:
[1] = biological target: T1, human recombinant ETB receptor (Homo sapiens, UniProt P24530); experiment: Inhibition of [125I]ET-1 binding to membranes from CHO cells carrying human ETB receptors
T1 construct: expressed in transfected cells; host or cells: CHO cells (microsomal membranes)
T1 sequence (P24530 27-442): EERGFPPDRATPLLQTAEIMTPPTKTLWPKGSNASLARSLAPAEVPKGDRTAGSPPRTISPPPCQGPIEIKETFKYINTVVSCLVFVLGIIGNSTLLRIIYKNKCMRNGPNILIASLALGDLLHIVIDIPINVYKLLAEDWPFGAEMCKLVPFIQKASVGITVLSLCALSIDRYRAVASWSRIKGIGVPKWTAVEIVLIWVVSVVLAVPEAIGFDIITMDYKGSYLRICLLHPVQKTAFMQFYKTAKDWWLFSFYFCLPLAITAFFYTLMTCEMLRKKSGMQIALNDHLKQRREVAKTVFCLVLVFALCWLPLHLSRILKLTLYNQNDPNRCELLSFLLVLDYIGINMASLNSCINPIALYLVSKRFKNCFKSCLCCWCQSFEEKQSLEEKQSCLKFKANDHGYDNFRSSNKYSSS

[2] = biological target: T2, human recombinant ETA receptor (Homo sapiens, UniProt P25101); experiment: Inhibition of [125I]ET-1 binding to membranes from CHO cells carrying human ETA receptors
T2 construct: expressed in transfected cells; host or cells: CHO cells (microsomal membranes)
T2 sequence (P25101 21-427): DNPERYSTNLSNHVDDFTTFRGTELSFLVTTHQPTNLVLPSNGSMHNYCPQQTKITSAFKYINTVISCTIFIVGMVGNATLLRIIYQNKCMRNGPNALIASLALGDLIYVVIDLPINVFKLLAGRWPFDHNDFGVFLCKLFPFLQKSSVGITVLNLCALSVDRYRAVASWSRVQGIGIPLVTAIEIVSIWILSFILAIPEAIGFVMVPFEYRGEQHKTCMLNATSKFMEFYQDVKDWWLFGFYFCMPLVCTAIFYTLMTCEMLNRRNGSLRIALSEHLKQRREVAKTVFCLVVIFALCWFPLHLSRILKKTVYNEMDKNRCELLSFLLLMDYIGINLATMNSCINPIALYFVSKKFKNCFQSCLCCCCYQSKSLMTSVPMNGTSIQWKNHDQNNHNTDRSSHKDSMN

O=S(=O)(Nc1ncnc(OCCOc2ncc(Br)cn2)c1-c1ccc(Cl)cc1)NC1CC1 [Example 114]
IC50 [1]: > 1000 nM | IC50 [2]: 8.3 nM

COc1ccccc1Oc1c(NS(=O)(=O)NCc2ccccc2)nc(-c2ccncc2)nc1OCCOc1ncc(Br)cn1 [Example 73]
IC50 [2]: 1.9 nM

COc1ccccc1Oc1c(NS(=O)(=O)Nc2ccccn2)nc(-c2ccncc2)nc1OC [Example 9, pyridine-2-sulfamic acid-[6-methoxy-5-(o-methoxyphenoxy)-2-(4-pyridyl)-4-pyrimidinyl]-amide]
IC50 [1]: > 10000 nM | IC50 [2]: 3630 nM

COc1ccccc1Oc1c(NS(=O)(=O)NCc2ccccc2)nc(N2CCOCC2)nc1OCCO [Example 205, benzylsulfamic acid [6-(2-hydroxy-ethoxy)-5-(2-methoxy-phenoxy)-2-morpholin-4-yl-pyrimidin-4-yl]-amide]
IC50 [1]: 623 nM | IC50 [2]: 135 nM

COc1cnc(OCCOc2ncnc(NS(=O)(=O)NCc3ccco3)c2-c2ccc(Cl)cc2)nc1 [Example 23]
IC50 [1]: 1590 nM | IC50 [2]: 3.6 nM

COc1cnc(OCCOc2nc(-c3ncccn3)nc(NS(=O)(=O)NCc3ccco3)c2Oc2ccccc2OC)nc1 [Example 59]
IC50 [1]: 124 nM | IC50 [2]: 5.6 nM

COc1ccccc1Oc1c(NS(=O)(=O)NCc2ccccc2)nc(C2CC2)nc1OCCOc1ncc(Br)cn1 [Example 88]
IC50 [2]: 16 nM

O=S(=O)(NCc1ccccc1)Nc1nc(-c2ccncc2)nc(OCCOc2ncc(Br)cn2)c1-c1ccc(Cl)cc1 [Example 109]
IC50 [1]: > 1000 nM | IC50 [2]: 1.94 nM

COc1cnc(OCCOc2nc(-c3ccncc3)nc(NS(=O)(=O)NCC3CCCCC3)c2Oc2ccccc2OC)nc1 [Example 131]
IC50 [1]: 233 nM | IC50 [2]: 3.2 nM

COc1ccccc1Oc1c(NS(=O)(=O)NC2CC2)nc(-c2ccncc2)nc1OCCOc1ncc(Br)cn1 [Example 202]
IC50 [1]: 351 nM | IC50 [2]: 9.6 nM

COc1ccc(CNS(=O)(=O)Nc2nc(-c3ncccn3)nc(OCCOC(=O)Nc3ccccc3)c2Oc2ccccc2OC)cc1OC [Example 168]
IC50 [1]: 1.6 nM | IC50 [2]: 2.7 nM

COc1cccc(CNS(=O)(=O)Nc2nc(-c3ncccn3)nc(OCCOc3ncc(Br)cn3)c2Oc2ccccc2OC)c1 [Example 170]
IC50 [1]: 42 nM | IC50 [2]: 1.7 nM

CSc1cnc(OCCOc2ncnc(NS(=O)(=O)NCC3CC3)c2-c2ccc(Br)cc2)nc1 [Example 108]
IC50 [1]: 56 nM | IC50 [2]: 0.28 nM

COc1cccc(CNS(=O)(=O)Nc2nc(-c3ncccn3)nc(OCCOC(=O)Nc3ccccc3)c2Oc2ccccc2OC)c1 [Example 172]
IC50 [1]: 16 nM | IC50 [2]: 3 nM

COc1cccc(CNS(=O)(=O)Nc2nc(-c3ncccn3)nc(OCCOc3ncccn3)c2Oc2ccccc2OC)c1 [Example 171]
IC50 [1]: 61 nM | IC50 [2]: 11 nM

O=S(=O)(NCC1CC1)Nc1ncnc(OCCOc2ncc(Br)cn2)c1-c1ccc(Br)cc1 [Example 107]
IC50 [1]: 96 nM | IC50 [2]: 0.25 nM

COc1ccc(Cl)c(Oc2c(NS(=O)(=O)NCc3ccccc3)ncnc2OCCO)c1 [Example 211, Benzylsulfamic acid [5-(2-chloro-5-methoxy-phenoxy)-6-(2-hydroxy-ethoxy)-pyrimidin-4-yl]-amide]
IC50 [1]: 722 nM | IC50 [2]: 290 nM

COc1cnc(OCCOc2nc(-c3ncccn3)nc(NS(=O)(=O)NCC3CC3)c2Oc2ccccc2OC)nc1 [Example 127]
IC50 [1]: 87 nM | IC50 [2]: 7.3 nM

Cc1cnc(OCCOc2ncnc(NS(=O)(=O)NCc3ccccc3)c2-c2ccc(Cl)cc2)nc1 [Example 16]
IC50 [1]: 8450 nM | IC50 [2]: 45 nM

COc1ccccc1Oc1c(NS(=O)(=O)NCc2ccccc2)nc(N2CCOCC2)nc1OCCOc1ncc(Br)cn1 [Example 206, Benzylsulfamic acid [6-[2-(5-bromo-pyrimidin-2-yloxy)-ethoxy]-5-(2-methoxy-phenoxy)-2-morpholin-4-yl-pyrimidin-4-yl]-amide]
IC50 [2]: 1.03 nM

COc1ccc(CNS(=O)(=O)Nc2nc(-c3ncccn3)nc(OCCOc3ncc(OC)cn3)c2Oc2ccccc2OC)cc1 [Example 49]
IC50 [1]: 25.4 nM | IC50 [2]: 0.82 nM

CCNS(=O)(=O)Nc1ncnc(OCCOc2ncc(SC)cn2)c1-c1ccc(Cl)cc1 [Example 116]
IC50 [1]: 567 nM | IC50 [2]: 1.3 nM

COc1ccccc1CNS(=O)(=O)Nc1nc(-c2ncccn2)nc(OCCOC(=O)Nc2ccccc2)c1Oc1ccccc1OC [Example 176]
IC50 [1]: 22 nM | IC50 [2]: 2.5 nM

O=S(=O)(NCc1ccccc1)Nc1nc(-c2ncccn2)nc(OCCOc2ncc(Br)cn2)c1-c1ccccc1 [Example 26]
IC50 [1]: > 10000 nM | IC50 [2]: 54 nM

COc1ccccc1Oc1c(NS(=O)(=O)NCc2ccccn2)nc(-c2ncccn2)nc1OCCOc1nccs1 [Example 157]
IC50 [1]: 954 nM | IC50 [2]: 42.2 nM

COc1ccccc1Oc1c(NS(=O)(=O)NCc2ccco2)nc(-c2ncccn2)nc1OCCOc1ncc(Br)cn1 [Example 60]
IC50 [1]: 232 nM | IC50 [2]: 3.4 nM

COc1ccc(CNS(=O)(=O)Nc2ncnc(OCCOc3ncc(OC)cn3)c2Oc2cc(OC)ccc2Cl)cc1 [Example 164]
IC50 [1]: 81 nM | IC50 [2]: 1 nM

COc1ccccc1Oc1c(NS(=O)(=O)NCCc2ccccc2)nc(-c2ccncc2)nc1OCCOC(=O)Nc1ccccc1 [Example 181]
IC50 [1]: 224 nM | IC50 [2]: 14.3 nM

COc1cnc(OCCOc2nc(-c3ccncc3)nc(NS(=O)(=O)NCC3CC3)c2Oc2ccccc2OC)nc1 [Example 124]
IC50 [1]: 102 nM | IC50 [2]: 7.3 nM

C=CCOc1nc(-c2ccnc(-c3nnn[nH]3)c2)nc(NS(=O)(=O)NCc2ccccc2)c1Oc1ccccc1OC [Example 209, Benzylsulfamic acid [6-allyloxy-5-(2-methoxy-phenoxy)-2-[2-(1H-tetrazol-5-yl)-pyridin-4-yl]-pyrimidin-4-yl]-amide]
IC50 [1]: > 1000 nM | IC50 [2]: 733 nM

COc1ccccc1Oc1c(NS(=O)(=O)N(C)Cc2ccccc2)nc(-c2ncccn2)nc1OCCOc1ncc(Br)cn1 [Example 187]
IC50 [2]: 9.8 nM

O=S(=O)(NCc1ccco1)Nc1ncnc(OCCOc2ncc(Br)cn2)c1-c1ccc(Cl)cc1 [Example 24]
IC50 [1]: 2500 nM | IC50 [2]: 2.2 nM

COc1ccc(CNS(=O)(=O)Nc2ncnc(OCCOc3ncc(Br)cn3)c2Oc2cc(OC)ccc2Cl)cc1 [Example 163]
IC50 [1]: 80 nM | IC50 [2]: 0.44 nM

COc1ccc(CNS(=O)(=O)Nc2nc(-c3ncccn3)nc(OCCOc3ncc(Br)cn3)c2Oc2ccccc2OC)cc1 [Example 48]
IC50 [1]: 46.6 nM | IC50 [2]: 1.46 nM

COc1ccccc1Oc1c(NS(=O)(=O)Nc2ccc(C(C)C)cc2)nc(-c2ccncc2)nc1OCCOc1ncccn1 [Example 4, 4-i-propyl-phenyl sulfamic acid-[6-[2-(pyrimidin-2-yloxy)-ethoxy]-5-(o-methoxyphenoxy)-2-(4-pyridyl)-pyrimidin-4-yl]-amide]
IC50 [1]: 680 nM | IC50 [2]: 96 nM

COc1ccccc1Oc1c(NS(=O)(=O)Nc2ccc(C)cn2)nc(-c2ccncc2)nc1OC [Example 8, 5-methyl-pyridine-2-sulfamic acid-[6-methoxy-5-(o-methoxy-phenoxy)-2-(4-pyridyl)-4-pyrimidinyl]-amide]
IC50 [1]: > 10000 nM | IC50 [2]: 1160 nM

CCCCNS(=O)(=O)Nc1ncnc(OCCOc2ncc(Br)cn2)c1-c1ccc(Cl)cc1 [Example 117]
IC50 [1]: 518 nM | IC50 [2]: 0.45 nM

COc1ccccc1Oc1c(NS(=O)(=O)NCc2ccccn2)nc(C2CC2)nc1OCCOc1ncc(Br)cn1 [Example 84]
IC50 [1]: 574 nM | IC50 [2]: 37 nM

COc1cnc(OCCOc2nc(-c3ccncc3)nc(NS(=O)(=O)NCc3ccccc3)c2-c2ccc(Cl)cc2)nc1 [Example 111]
IC50 [1]: 3750 nM | IC50 [2]: 12.3 nM

COc1ccccc1Oc1c(NS(=O)(=O)NCc2cccs2)nc(-c2ccncc2)nc1OCCOc1ncc(Br)cn1 [Example 80]
IC50 [1]: > 1000 nM | IC50 [2]: 10 nM

COc1ccc(Cl)c(Oc2c(NS(=O)(=O)NCc3ccccc3)ncnc2OCCOc2ncc(Br)cn2)c1 [Example 212, Benzylsulfamic acid [6-[2-(5-bromo-pyrimidin-2-yloxy)-ethoxy]-5-(2-chloro-5-methoxy-phenoxy)-pyrimidin-4-yl]-amide]
IC50 [2]: 3.1 nM

CCNS(=O)(=O)Nc1nc(-c2ncccn2)nc(OCCOc2ncc(Br)cn2)c1Oc1ccccc1OC [Example 184]
IC50 [2]: 29.5 nM

O=S(=O)(Nc1ncnc(OCCOc2ncc(Br)cn2)c1-c1ccc(Br)cc1)NC1CC1 [Example 196]
IC50 [2]: 4.4 nM

CCc1ccc(-c2c(NS(=O)(=O)NCc3ccccc3)ncnc2OCCOc2ncc(Br)cn2)cc1 [Example 29]
IC50 [2]: 13.5 nM

COc1ccccc1Oc1c(NS(=O)(=O)NCc2ccccc2)nc(-c2cnccn2)nc1OCCOc1ncc(Br)cn1 [Example 71]
IC50 [2]: 23.6 nM

CCNS(=O)(=O)Nc1ncnc(OCCOc2ncc(Br)cn2)c1-c1ccc(Br)cc1 [Example 104]
IC50 [2]: 0.88 nM

COc1ccccc1Oc1c(NS(=O)(=O)NCc2ccccc2)ncnc1OCCOc1ncc(Br)cn1 [Example 96]
IC50 [2]: 6.3 nM
